Source: patent publication US20250241891A1, “TREATMENT OF ANXIETY” (GH RESEARCH IRELAND LIMITED, priority 2022, published 2025)

Test: Pharmacokinetics of 5-MeO-DMT and bufotenine after inhalation
Type: in vivo, human
Experimental: Blood samples were obtained at 1; 2; 4; 7; 10; 15; 20; 30; 45 min and 1; 1.5; 2; 3; 4 hours after administration.
PK parameters were generated by algebraic analysis of the concentration versus time plots for each individual. The analysis was carried out using the software Phoenix WinNonlin 6.3.

COc1ccc2[nH]cc(CCN(C)C)c2c1 [5-MeO-DMT]
detectability in the plasma (3 hours after inhalation, whole dose range 6, 12, 18 mg): no longer detectable | pharmacokinetic measurements with uptitration dosing schemes compared with single doses (inhalation, uptitration): Substantially similar results were obtained | accumulation upon repeated administration (repeated inhalation within a time frame of 1 to 4 hours): No accumulation is observed
